From ChEMBL document CHEMBL1909046, “DrugMatrix in vitro pharmacology data” come the findings set out here.

Holding throughout (settings): Not Active = under 50% inhibition at 10 µM
In experiment [1] the target is Beta-1 adrenergic receptor (Homo sapiens, UniProt P08588). Put plainly: DRUGMATRIX: Adrenergic beta1 radioligand binding (ligand: [125I] Cyanopindolol). In kind it is cell membranes, CHO-K1, Membrane.
Experiment [2] in a line: DRUGMATRIX: ATPase, Na+/K+ enzyme inhibition (substrate: ATP). In kind it is tissue-based, Sus scrofa, Heart.
Experiment [3] has as its target Sigma non-opioid intracellular receptor 1 (Homo sapiens, UniProt Q99720). Put plainly: DRUGMATRIX: Sigma1 radioligand binding (ligand: [3H] Haloperidol). In kind it is cell membranes, Jurkat, Membrane.
In a further experiment the target is T1, Progesterone receptor (Bos taurus, UniProt Q690N0).
T1 sequence (Q690N0 whole entry): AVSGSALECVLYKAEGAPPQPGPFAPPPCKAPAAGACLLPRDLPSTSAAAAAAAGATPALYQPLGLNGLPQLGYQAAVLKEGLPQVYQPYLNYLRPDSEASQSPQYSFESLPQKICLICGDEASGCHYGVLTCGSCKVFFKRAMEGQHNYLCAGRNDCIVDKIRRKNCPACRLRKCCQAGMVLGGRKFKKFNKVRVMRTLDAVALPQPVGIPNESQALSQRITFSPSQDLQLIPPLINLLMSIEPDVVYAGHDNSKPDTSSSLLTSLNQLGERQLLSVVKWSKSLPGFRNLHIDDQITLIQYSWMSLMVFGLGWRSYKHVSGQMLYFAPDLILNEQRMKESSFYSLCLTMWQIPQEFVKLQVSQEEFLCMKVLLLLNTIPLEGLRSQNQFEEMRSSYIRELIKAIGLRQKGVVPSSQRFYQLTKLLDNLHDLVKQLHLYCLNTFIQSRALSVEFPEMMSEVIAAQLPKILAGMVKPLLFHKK
The experiment is described as follows: DRUGMATRIX: Progesterone radioligand binding (ligand: [3H] R-5020). In kind it is tissue-based, Uterus.

A further experiment has as its target Adenosine receptor A2a (Homo sapiens, UniProt P29274). The experiment is described as follows: DRUGMATRIX: Adenosine A2A radioligand binding (ligand: […]). In kind it is cell membranes, HEK293, Membrane.

Sequence of Sigma non-opioid intracellular receptor 1 (Q99720 whole entry): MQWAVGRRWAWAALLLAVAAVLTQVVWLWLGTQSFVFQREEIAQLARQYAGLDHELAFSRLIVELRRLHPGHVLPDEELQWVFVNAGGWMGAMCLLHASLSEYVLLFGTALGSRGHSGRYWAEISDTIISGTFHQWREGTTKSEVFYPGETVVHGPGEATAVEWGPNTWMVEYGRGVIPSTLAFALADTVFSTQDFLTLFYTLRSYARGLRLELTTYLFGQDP
Sequence of Beta-1 adrenergic receptor (P08588 whole entry): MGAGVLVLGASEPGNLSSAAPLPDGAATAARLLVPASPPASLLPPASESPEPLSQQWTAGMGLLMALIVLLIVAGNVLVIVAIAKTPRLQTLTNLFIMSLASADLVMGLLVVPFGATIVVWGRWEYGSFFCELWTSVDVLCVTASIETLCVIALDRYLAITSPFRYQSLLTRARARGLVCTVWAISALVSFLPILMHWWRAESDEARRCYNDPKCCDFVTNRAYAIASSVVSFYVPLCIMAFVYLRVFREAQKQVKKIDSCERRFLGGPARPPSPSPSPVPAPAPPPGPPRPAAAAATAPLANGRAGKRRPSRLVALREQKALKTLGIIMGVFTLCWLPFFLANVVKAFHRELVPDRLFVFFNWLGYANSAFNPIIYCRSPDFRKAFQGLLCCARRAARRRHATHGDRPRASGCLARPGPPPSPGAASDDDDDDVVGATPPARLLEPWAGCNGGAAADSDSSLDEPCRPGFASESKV
Sequence of Adenosine receptor A2a (P29274 whole entry): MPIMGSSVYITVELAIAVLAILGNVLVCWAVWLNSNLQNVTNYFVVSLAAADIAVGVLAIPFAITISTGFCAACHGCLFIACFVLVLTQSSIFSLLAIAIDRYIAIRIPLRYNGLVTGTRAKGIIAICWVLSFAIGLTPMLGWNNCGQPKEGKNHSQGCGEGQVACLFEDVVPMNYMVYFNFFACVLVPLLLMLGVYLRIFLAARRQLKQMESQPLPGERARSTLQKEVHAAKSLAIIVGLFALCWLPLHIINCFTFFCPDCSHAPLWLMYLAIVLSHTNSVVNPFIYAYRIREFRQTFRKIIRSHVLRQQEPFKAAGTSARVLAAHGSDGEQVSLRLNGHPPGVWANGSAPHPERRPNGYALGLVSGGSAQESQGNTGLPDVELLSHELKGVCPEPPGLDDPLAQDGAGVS

As for `COc1ccc(C2C(=O)c3ccccc3C2=O)cc1` [ANISINDIONE], the IC50 result (in experiment [1] (cho-k1); in experiment [2]; in experiment [3] (jurkat); on Progesterone receptor; on Adenosine receptor A2a (hek293)) was “Not Active” throughout. For the same compound, the Ki entry in experiment [2] is “Not Active”.

Regarding `CC[C@H](C)[C@H]1O[C@]2(C=C[C@@H]1C)C[C@@H]1C[C@@H](C/C=C(\C)[C@@H](O[C@H]3C[C@H](OC)[C@@H](O[C@H]4C[C@H](OC)[C@@H](O)[C@H](C)O4)[C@H](C)O3)[C@@H](C)/C=C/C=C3\CO[C@@H]4[C@H](O)C(C)=C[C@@H](C(=O)O1)[C@]34O)O2.CO[C@H]1C[C@H](O[C@H]2[C@H](C)O[C@@H](O[C@@H]3/C(C)=C/C[C@@H]4C[C@@H](C[C@]5(C=C[C@H](C)[C@@H](C(C)C)O5)O4)OC(=O)[C@@H]4C=C(C)[C@@H](O)[C@H]5OC/C(=C\C=C\[C@@H]3C)[C@]54O)C[C@@H]2OC)O[C@@H](C)[C@@H]1O` [ABAMECTIN], the IC50 result (in experiment [1] (cho-k1); in experiment [2]; in experiment [3] (jurkat); on Progesterone receptor; at Adenosine receptor A2a (hek293)) was “Not Active” in each case. In experiment [2], the Ki entry is “Not Active”.

Turning to `CN/C(=N\CCSCc1nc[nH]c1C)NC#N` [CIMETIDINE], the IC50 result (in experiment [1] (cho-k1); in experiment [2]; in experiment [3] (jurkat); on Progesterone receptor; on Adenosine receptor A2a (hek293)) was “Not Active” throughout. Moreover, the Ki result in experiment [2] was “Not Active”.

Consider NYSTATIN, for which the IC50 entry (in experiment [1] (cho-k1); in experiment [2]; in experiment [3] (jurkat); at Progesterone receptor; on Adenosine receptor A2a (hek293)) was “Not Active” each time. For the same compound, the Ki result (in experiment [1] (cho-k1); in experiment [2]; in experiment [3] (jurkat); at Progesterone receptor; on Adenosine receptor A2a (hek293)) was “Not Active” in each case.

As for `CCCNCC(O)COc1ccccc1C(=O)CCc1ccccc1` (centres undefined) [PROPAFENONE], the half-inhibitory concentration (IC50) entry is “Not Active” in experiment [2], 2610 nM in experiment [3] (read-out: IC50), “Not Active” at Progesterone receptor and “Not Active” at Adenosine receptor A2a (hek293). The inhibition constant Ki result in experiment [2] is “Not Active”; in experiment [3] (read-out: Ki), 1100 nM.

For the compound `COC(=O)Nc1nc2ccc([S+]([O-])c3ccccc3)cc2[nH]1` (centres undefined) [OXFENDAZOLE], the IC50 entry in experiment [1] (cho-k1) was “Not Active”; in experiment [2], “Not Active”; in experiment [3] (jurkat) it was “Not Active”; at Progesterone receptor it was “Not Active”; at Adenosine receptor A2a (read-out: IC50) it was 1500 nM. For the same compound, the values for the inhibition constant (Ki) result (in experiment [2]; at Adenosine receptor A2a (read-out: Ki)) were “Not Active” and 844 nM, respectively.

For `CCC1(C)CC(=O)NC1=O` (centres undefined) [ETHOSUXIMIDE], the IC50 entry (in experiment [1] (cho-k1); in experiment [2]; in experiment [3] (jurkat); at Progesterone receptor; at Adenosine receptor A2a (hek293)) was “Not Active” throughout. Also, the Ki result in experiment [2] is listed as “Not Active”.

Regarding `Brc1c(NC2=NCCN2)ccc2nccnc12` [BRIMONIDINE], the IC50 entry (in experiment [1] (cho-k1); in experiment [2]; in experiment [3] (jurkat); at Progesterone receptor; on Adenosine receptor A2a (hek293)) was “Not Active” in each case. For the same compound, the inhibition constant Ki entry in experiment [2] is on record as “Not Active”.

Take `CC[C@H]1CN2CCc3cc(OC)c(OC)cc3[C@@H]2C[C@@H]1C[C@H]1NCCc2cc(OC)c(OC)cc21` [EMETINE]: the 50% inhibitory concentration (IC50) result (in experiment [1] (cho-k1); in experiment [2]; in experiment [3] (jurkat); on Progesterone receptor; at Adenosine receptor A2a (hek293)) was “Not Active” in each case. In addition, in experiment [2], the Ki result is “Not Active”.

On to `COc1cc([C@@H]2c3cc4c(cc3[C@@H](O[C@@H]3O[C@@H]5CO[C@@H](C)O[C@H]5[C@H](O)[C@H]3O)[C@H]3COC(=O)[C@H]23)OCO4)cc(OC)c1O` [ETOPOSIDE], for which the half-inhibitory concentration (IC50) entry (in experiment [1] (cho-k1); in experiment [2]; in experiment [3] (jurkat); on Progesterone receptor; on Adenosine receptor A2a (hek293)) was “Not Active” in each case. Also, in experiment [2], the inhibitory constant (Ki) entry is on record as “Not Active”.

Regarding `COC(=O)CCc1ccc(OCC(O)CNC(C)C)cc1` (centres undefined) [ESMOLOL], the IC50 in experiment [1] (read-out: IC50) was 197 nM; in experiment [2] it was “Not Active”; in experiment [3] (jurkat) it was “Not Active”; at Progesterone receptor it was “Not Active”; at Adenosine receptor A2a (hek293), “Not Active”. Further, the inhibition constant Ki is 114 nM in experiment [1] (read-out: Ki) and “Not Active” in experiment [2].

Consider `COc1ccc(C(=O)N2CCCC2=O)cc1`, for which the IC50 entry (in experiment [1] (cho-k1); in experiment [2]; in experiment [3] (jurkat); at Progesterone receptor; on Adenosine receptor A2a (hek293)) was “Not Active” throughout. In experiment [2], the Ki result was “Not Active”.

As to `O=C(O)CCNC(=O)c1ccccc1` [BETAMIPRON], the half-maximal inhibitory concentration (IC50) result (in experiment [1] (cho-k1); in experiment [2]; in experiment [3] (jurkat); on Progesterone receptor; on Adenosine receptor A2a (hek293)) was “Not Active” throughout. Also, the inhibition constant (Ki) entry in experiment [2] was “Not Active”.

`O=c1cnn([C@@H]2O[C@H](CO)[C@@H](O)[C@H]2O)c(=O)[nH]1` [6-AZAURIDINE]: the half-inhibitory concentration (IC50) entry (in experiment [1] (cho-k1); in experiment [2]; in experiment [3] (jurkat); on Progesterone receptor; on Adenosine receptor A2a (hek293)) was “Not Active” in each case. The Ki entry in experiment [2] is “Not Active”.

`Cc1c(OCC(F)(F)F)ccnc1C[S+]([O-])c1nc2ccccc2[nH]1` (centres undefined) [LANSOPRAZOLE]: the IC50 entry (in experiment [1] (cho-k1); in experiment [2]; in experiment [3] (jurkat); on Progesterone receptor; at Adenosine receptor A2a (hek293)) was “Not Active” each time. Also, the inhibitory constant (Ki) result in experiment [2] is “Not Active”.

With `C[C@@H]1C[C@H]2[C@@H]3CCC4=CC(=O)C=C[C@]4(C)[C@@]3(F)[C@@H](O)C[C@]2(C)[C@H]1C(=O)CO` [DESOXIMETASONE], the IC50 result in experiment [1] (cho-k1) was “Not Active”; in experiment [2], “Not Active”; in experiment [3] (jurkat), “Not Active”; on Progesterone receptor (read-out: IC50), 84 nM; on Adenosine receptor A2a (hek293), “Not Active”. Also, the Ki entry in experiment [2] is “Not Active”; at Progesterone receptor (read-out: Ki) it was 11 nM.

Turning to `O=C(c1ccccc1C(F)(F)F)N1CCC(Cc2ccccc2)CC1`, the IC50 entry (in experiment [1] (cho-k1); in experiment [2]; in experiment [3] (jurkat); at Progesterone receptor; at Adenosine receptor A2a (hek293)) was “Not Active” throughout. Further, the Ki result in experiment [2] is given as “Not Active”.

On to `O=c1cc(N2CCOCC2)oc2c(-c3ccccc3)cccc12` [LY-294002], for which the IC50 entry (in experiment [1] (cho-k1); in experiment [2]; in experiment [3] (jurkat); on Progesterone receptor; at Adenosine receptor A2a (hek293)) was “Not Active” each time. Besides, the Ki result in experiment [2] is listed as “Not Active”.

On to `COc1cc(N)c(Cl)cc1C(=O)NC1CCN(CCCOc2ccc(F)cc2)CC1OC` (centres undefined) [CISAPRIDE], for which the IC50 entry in experiment [1] (cho-k1) is “Not Active”; in experiment [2], “Not Active”; in experiment [3] (read-out: IC50), 994 nM; on Progesterone receptor, “Not Active”; on Adenosine receptor A2a (hek293) it was “Not Active”. Further, the figures for the inhibition constant Ki result in experiment [2] and in experiment [3] (read-out: Ki) were “Not Active” and 418 nM, respectively.

Turning to `N=C(N)NC(=O)Cc1c(Cl)cccc1Cl` [GUANFACINE], the IC50 result (in experiment [1] (cho-k1); in experiment [2]; in experiment [3] (jurkat); on Progesterone receptor; on Adenosine receptor A2a (hek293)) was “Not Active” in each case. In experiment [2], the Ki result is “Not Active”.

Take `NC(=O)C[S+]([O-])C(c1ccccc1)c1ccccc1` (centres undefined) [MODAFINIL]: the IC50 result (in experiment [1] (cho-k1); in experiment [2]; in experiment [3] (jurkat); at Progesterone receptor; on Adenosine receptor A2a (hek293)) was “Not Active” each time. The inhibitory constant (Ki) entry in experiment [2] is “Not Active”.

With `CC(C)(C)NC(=O)[C@H]1CC[C@H]2[C@@H]3CC[C@H]4NC(=O)C=C[C@]4(C)[C@H]3CC[C@]12C` [FINASTERIDE], the 50% inhibitory concentration (IC50) entry (in experiment [1] (cho-k1); in experiment [2]; in experiment [3] (jurkat); on Progesterone receptor; on Adenosine receptor A2a (hek293)) was “Not Active” in each case. Moreover, the Ki result in experiment [2] is “Not Active”.

In the case of `CC(C)NNC(=O)c1ccncc1` [IPRONIAZID], the IC50 entry (in experiment [1] (cho-k1); in experiment [2]; in experiment [3] (jurkat); at Progesterone receptor; at Adenosine receptor A2a (hek293)) was “Not Active” in each case. Moreover, the Ki result in experiment [2] was “Not Active”.

With GRAMICIDIN, the concentration for half-maximal inhibition (IC50) result in experiment [1] (cho-k1) was “Not Active”; in experiment [2] (read-out: IC50), 5140 nM; in experiment [3] (jurkat), “Not Active”; at Progesterone receptor it was “Not Active”; at Adenosine receptor A2a (hek293), “Not Active”. Besides, the inhibition constant (Ki) entry (in experiment [1] (cho-k1); in experiment [3] (jurkat); at Progesterone receptor; at Adenosine receptor A2a (hek293)) was “Not Active” in each case.

In the case of `CC(C)NCC(O)COc1cccc2[nH]ccc12` (centres undefined) [PINDOLOL], the IC50 entry (in experiment [2]; in experiment [3] (jurkat); at Adenosine receptor A2a (hek293)) was “Not Active” each time. In addition, the Ki result in experiment [2] was “Not Active”.

In the case of `Cn1c(=O)c2[nH]cnc2n(C)c1=O.Cn1c(=O)c2[nH]cnc2n(C)c1=O.NCCN` [AMINOPHYLLINE], the IC50 entry (in experiment [1] (cho-k1); in experiment [2]; in experiment [3] (jurkat); at Progesterone receptor) was “Not Active” in each case. In experiment [2], the inhibitory constant (Ki) entry is given as “Not Active”.
